Legend:
[1] = Pharmacokinetic analysis after oral dosing in mice; format: in vivo, BALB/c mice
Procedure: Six to eight-week-old male BALB/c (BALB/cAnNCrlBltw) mice (22-30 g) were purchased from BioLASCO Taiwan Co., Ilan, Taiwan. In vivo PK analysis of ITRI-148 was performed with 10 mg/kg for oral (PO, n = 3) dosing route. Blood samples from the mice were collected using Microvette® CB 300 EDTA blood collection tubes by a lancet at 0.167 h (IV only), 0.5, 1, 2, 4, 7 and 24 h time points. The plasma was then subjected to LC-MS analysis to quantitate the drug concentration using calibration curves that were established with drug standards prepared in mice plasma.

[2] = Repeated-dose toxicity study: serum clinical chemistry; format: in vivo, Sprague-Dawley rats; conditions: rat serum
Procedure: (§1) Repeated-dose toxicity and toxicokinetic studies
Repeated-dose oral toxicity study and toxicokinetic (TK) profiling was conducted in Sprague-Dawley rats. ITRI-148 was administered once daily using oral gavage at doses of 100, 300, 600, and 1000 mg/kg/day for 7 consecutive days, followed by a 7-day recovery period. Each dose group comprised 3 animals designated for toxicokinetic (TK) analysis and 6 animals for dose-range finding (DRF) evaluation. Clinical observations, body weights, and food consumption were monitored daily throughout the dosing and recovery periods. […]
All samples were analyzed in duplicate. Hematology and serum clinical chemistry analyses were performed on Day 7 (end of dosing) and Day 14 (end of recovery). […]
(§2) All procedures were conducted in compliance with institutional animal care and use guidelines. […]
(§3) Targeting androgen receptor and the variants by an orally bioavailable
(§4) Proteolysis Targeting Chimeras compound in castration resistant prostate cancer

[3] = Metabolic stability in mouse liver microsomes; format: in vitro ADME
Procedure: The metabolic stability of all PROTAC compounds in the screening phase (Table 1) was evaluated using mouse liver microsomes. Incubations were performed at 37 °C in phosphate buffer (pH 7.4) containing NADPH (1 mM), 0.5 mg/mL microsomal protein and 1 μM ITRI-148 (0.25 % DMSO) for 0, 5, 20, or 30 minutes, followed by quenching with acetonitrile (1:3, v/v) for HPLC analysis. To evaluate the species-specific metabolism of ITRI-148, its stability was assessed in liver microsomes from human, dog, rat, and mouse using same incubation conditions as above, with the time extending to 0, 15, 30, 45, and 60 minutes, followed by acetonitrile quenching (1:10) and LC-MS/MS analysis.

[4] = Toxicokinetic profiling in rats; format: in vivo; conditions: Sprague-Dawley, rat, plasma, po; for AUC: read-out: AUC24
Procedure: as §1
Repeated-dose oral toxicity study and toxicokinetic (TK) profiling was conducted in Sprague-Dawley rats. ITRI-148 was administered once daily using oral gavage at doses of 100, 300, 600, and 1000 mg/kg/day for 7 consecutive days, followed by a 7-day recovery period. Each dose group comprised 3 animals designated for toxicokinetic (TK) analysis and 6 animals for dose-range finding (DRF) evaluation. Clinical observations, body weights, and food consumption were monitored daily throughout the dosing and recovery periods. After the first (Day 0) and last (Day 6) dosing, serial blood samples were collected at the pose-dose time points of 0.5, 1, 2, 4, 7, 24, 48 and 72 hours for TK profiling analysis. Plasma concentrations of ITRI-148 were quantified using a validated LC-MS/MS method. Analysis was performed using a Sciex QTrap 4000 mass spectrometer coupled with a Shimadzu LC system. The chromatographic separation was achieved on a C18 reverse-phase column with a gradient elution of acetonitrile and 0.1% formic acid in water. The lower limit of quantification (LLOQ) […]
was 5 ng/mL. All samples were analyzed in duplicate. […]
as §2, §3, §4

CWR22Rv1 cell = CWR22Rv1 cell viability after 3 days of 10 μM compound (linker screen); format: cell-based; conditions: 72 h, CWR22Rv1, 10 μM compound
[5] = male, BALB/c, mouse, plasma, po, 10 mg/kg
[6] = PO 100 mg/kg/day 7 days, Day 14 (recovery)
[7] = PO 300 mg/kg/day 7 days, Day 14 (recovery)
[8] = PO 600 mg/kg/day 7 days, Day 14 (recovery)
[9] = PO 1000 mg/kg/day 7 days, Day 7
[10] = PO 1000 mg/kg/day 7 days, Day 14 (recovery)
[11] = 100 mg/kg, 7-times repeated dosing 100 mg/kg
[12] = 100 mg/kg, single dosing 100 mg/kg
[13] = 300 mg/kg, 7-times repeated dosing 300 mg/kg
[14] = 300 mg/kg, single dosing 300 mg/kg
[15] = 600 mg/kg, 7-times repeated dosing 600 mg/kg
[16] = 600 mg/kg, single dosing 600 mg/kg
[17] = 1000 mg/kg, 7-times repeated dosing 1000 mg/kg
[18] = 1000 mg/kg, single dosing 1000 mg/kg

In the case of `O=C1CCC(N2C(=O)c3cccc(NCC(=O)N4CCC(N5CCC(C#Cc6ccc(C7CCN(C8=Nn9c(nnc9C(F)(F)F)CC8)CC7)cc6)CC5)CC4)c3C2=O)C(=O)N1` (stereo not shown) [ITRI-148], the AUC/Dose ([1]; PO, 10 mg/kg, 0-24 h per dosing) is reported as 990.1 h⋅kg⋅ng/mL/mg, the BA ([1]; PO, 10 mg/kg, bioavailability) is reported as 27.1 ± 0.5% and the “PK (PO, 10 mg/kg) BA” value ([1]; PO, bioavailability) is reported as 27.1%. The AUC [1, 5] was 9.9 µg·h/mL, the Cmax [1, 5] was 0.733 ± 0.045 µg/mL and the Tmax [1, 5] was 4 h. For the same compound, the AUC(0-t) ([1]; male, BALB/c, mouse, plasma, PO, 10 mg/kg, between 0 and 24 h) was 9.9 µg·h/mL, the ALT ([2]; PO 100 mg/kg/day 7 days, Day 7) was 102.3 ± 40.6 U/L and the AST ([2]; PO 100 mg/kg/day 7 days, Day 7) was 188.7 ± 59 U/L. It also gave a BUN ([2]; PO 100 mg/kg/day 7 days, Day 7) of 17.73 ± 2.8 mg/dL, a CRE ([2]; PO 100 mg/kg/day 7 days, Day 7) of 0.63 ± 0.06 mg/dL and an ALT [2, 6] of 84.3 ± 31.6 U/L. For the same compound, the AST [2, 6] was 136.7 ± 10.4 U/L, the BUN [2, 6] was 13.23 ± 1.12 mg/dL and the CRE [2, 6] was 0.4 ± 0.1 mg/dL. It also gave an ALT ([2]; PO 300 mg/kg/day 7 days, Day 7) of 85.3 ± 10 U/L, an AST ([2]; PO 300 mg/kg/day 7 days, Day 7) of 177 ± 37.4 U/L and a BUN ([2]; PO 300 mg/kg/day 7 days, Day 7) of 20.53 ± 2.06 mg/dL. It also gave a CRE ([2]; PO 300 mg/kg/day 7 days, Day 7) of 0.63 ± 0.06 mg/dL, an ALT [2, 7] of 60.7 ± 7.1 U/L and an AST [2, 7] of 122 ± 5.3 U/L. For the same compound, the BUN [2, 7] was 10.9 ± 1.13 mg/dL, the CRE [2, 7] was 0.33 ± 0.06 mg/dL and the ALT ([2]; PO 600 mg/kg/day 7 days, Day 7) was 76.7 ± 2.1 U/L. It also gave an AST ([2]; PO 600 mg/kg/day 7 days, Day 7) of 196 ± 66 U/L, a BUN ([2]; PO 600 mg/kg/day 7 days, Day 7) of 21.8 ± 1.81 mg/dL and a CRE ([2]; PO 600 mg/kg/day 7 days, Day 7) of 0.57 ± 0.06 mg/dL. It also gave an ALT [2, 8] of 69.3 ± 11.5 U/L, an AST [2, 8] of 170 ± 41.7 U/L and a BUN [2, 8] of 13.03 ± 0.83 mg/dL. For the same compound, the CRE [2, 8] was 0.47 ± 0.06 mg/dL, the ALT [2, 9] was 68 ± 15.4 U/L and the AST [2, 9] was 132.7 ± 14.5 U/L. The BUN [2, 9] was 16.77 ± 2.32 mg/dL, the CRE [2, 9] was 0.57 ± 0.06 mg/dL and the ALT [2, 10] was 94.3 ± 41.2 U/L. For the same compound, the AST [2, 10] was 150.3 ± 43 U/L, the BUN [2, 10] was 16.23 ± 4.71 mg/dL and the CRE [2, 10] was 0.37 ± 0.06 mg/dL. For the same compound, the “Remaining of intact drug (%)” value ([3]; mice liver microsomes, 1 μM, incubation up to 60 minutes) was 80.7 ± 1.8%, the remaining at 0.5 h, 1 μM ([3]; mouse, liver microsomes, pH 7.4, mice microsomes, 30 min of incubation, read-out: Microsome stability (% remaining)) was 97.2% and the half-life at 1 μM ([3]; mouse, pH 7.4, mice liver microsomes, read-out: Plasma Stability t1/2 (microsome panel)) was > 1 h. The AUC(0-t) [4, 11] was 8.75 µg·h/mL, the Cmax [4, 11] was 0.561 ± 0.0621 µg/mL and the AUC [4, 11] was 8.33 µg·h/mL. It also gave an AUC(0-t) [4, 12] of 9.3 µg·h/mL, a Cmax [4, 12] of 0.466 ± 0.0136 µg/mL and an AUC [4, 12] of 7.67 µg·h/mL. It also gave an AUC(0-t) [4, 13] of 20.5 µg·h/mL, a Cmax [4, 13] of 1.05 µg/mL and an AUC [4, 13] of 17 µg·h/mL. It also gave an AUC(0-t) [4, 14] of 20.1 µg·h/mL, a Cmax [4, 14] of 0.659 ± 0.184 µg/mL and an AUC [4, 14] of 13 µg·h/mL. It also gave an AUC(0-t) [4, 15] of 35.2 µg·h/mL, a Cmax [4, 15] of 1.44 µg/mL and an AUC [4, 15] of 25.2 µg·h/mL. It also gave an AUC(0-t) [4, 16] of 27.1 µg·h/mL, a Cmax [4, 16] of 0.914 ± 0.296 µg/mL and an AUC [4, 16] of 15.1 µg·h/mL. The AUC(0-t) [4, 17] was 56 µg·h/mL, the Cmax [4, 17] was 1.91 µg/mL and the AUC [4, 17] was 36.6 µg·h/mL. The AUC(0-t) [4, 18] was 40.4 µg·h/mL, the Cmax [4, 18] was 1 µg/mL and the AUC [4, 18] was 17.4 µg·h/mL. It also gave a viability at 10 µM (CWR22Rv1 cell) of 1.71%.

— PMC12661400, “Oral bioavailable ITRI-148 degrades androgen receptor variants and overcomes antiandrogen resistance in advanced prostate cancer” (Neoplasia (New York, N.Y.), 2025)
